In US12319655B2, “RAF kinase inhibitors and methods of use thereof” (Deciphera Pharmaceuticals, LLC, priority 2021, dated 2025):

What was measured:
[1] = biological target: A-Raf kinase (SEQ. ID No: 1) (Homo sapiens (Human), UniProt P10398, Y301D/Y302D); assay: Biochemical Assay for A-Raf (1); details: Table J, assay version (1); read-out: ARAF (1) IC50
Method in brief: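 A-Raf Y301D/Y302D at 5.55 nM phosphorylates 30.1 nM MEK with 1 mM ATP in pH 7.5 Tris buffer, 1% DMSO. Activity was read continuously as NADH oxidation at 340 nm in a pyruvate kinase/lactate dehydrogenase coupled system for 6 h at 30 °C. Rates from 4–5 h were converted to percent inhibition, and IC50 came from a four-parameter fit.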

[2] = biological target: B-Raf kinase (SEQ. ID NO: 2) (Homo sapiens (Human), UniProt P15056); assay: Biochemical Assay for B-Raf (1); details: Table J, assay version (1); read-out: BRAF (1) IC50
Method in brief: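 Continuous PK/LDH-coupled NADH oxidation assay, A340 read for 6 h at 30° C., with 0.13 nM B-Raf, 30.1 nM MEK substrate and 1 mM ATP in Tris pH 7.5, MgCl2, DTT, detergents, 1% DMSO. Rate taken from 4–5 h window; percent inhibition vs no-compound and known-inhibitor controls; four-parameter fit gives IC50.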

H2405 cells = assay: H2405 Cell Proliferation Assay (1); format: cell-based; details: Homo sapiens, NCI-H2405
Method in brief: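 Viability was read by resazurin reduction (ex 540 nm, em 600 nm; 5-6 h with 40 μL of 440 μM stock) after 67-72 h compound exposure at 37 °C.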

Miapaca-2 cells = assay: MiaPaca-2 Cell Proliferation Assay (1); format: cell-based; details: Homo sapiens, MIA PaCa-2, single agent, read-out: MiaPaca2 (1) IC50
Method in brief: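 Resazurin was added after compound exposure and incubated 5-6 h, then fluorescence read at 540 nm excitation and 600 nm emission to give IC50.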

Sequence of A-Raf kinase (SEQ. ID No: 1) (P10398 other isoform, or with tags, fused parts or gaps Y301D (already in the parent)/Y302D (already in the parent)): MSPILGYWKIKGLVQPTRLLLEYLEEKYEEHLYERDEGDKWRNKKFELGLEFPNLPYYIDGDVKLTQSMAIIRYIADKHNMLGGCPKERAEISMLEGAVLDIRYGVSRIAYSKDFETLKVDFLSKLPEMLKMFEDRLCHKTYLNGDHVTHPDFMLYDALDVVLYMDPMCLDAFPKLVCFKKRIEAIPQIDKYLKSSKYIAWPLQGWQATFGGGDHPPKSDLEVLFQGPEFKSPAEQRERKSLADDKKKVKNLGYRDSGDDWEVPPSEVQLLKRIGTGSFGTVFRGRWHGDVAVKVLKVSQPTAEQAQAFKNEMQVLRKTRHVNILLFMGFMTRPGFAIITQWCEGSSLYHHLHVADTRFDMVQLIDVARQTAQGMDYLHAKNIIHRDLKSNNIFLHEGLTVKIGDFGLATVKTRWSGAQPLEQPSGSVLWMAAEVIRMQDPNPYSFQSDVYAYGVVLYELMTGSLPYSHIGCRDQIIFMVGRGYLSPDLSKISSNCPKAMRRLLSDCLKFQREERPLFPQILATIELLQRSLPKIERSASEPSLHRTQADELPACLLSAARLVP
Sequence of B-Raf kinase (SEQ. ID NO: 2) (P15056 416-766): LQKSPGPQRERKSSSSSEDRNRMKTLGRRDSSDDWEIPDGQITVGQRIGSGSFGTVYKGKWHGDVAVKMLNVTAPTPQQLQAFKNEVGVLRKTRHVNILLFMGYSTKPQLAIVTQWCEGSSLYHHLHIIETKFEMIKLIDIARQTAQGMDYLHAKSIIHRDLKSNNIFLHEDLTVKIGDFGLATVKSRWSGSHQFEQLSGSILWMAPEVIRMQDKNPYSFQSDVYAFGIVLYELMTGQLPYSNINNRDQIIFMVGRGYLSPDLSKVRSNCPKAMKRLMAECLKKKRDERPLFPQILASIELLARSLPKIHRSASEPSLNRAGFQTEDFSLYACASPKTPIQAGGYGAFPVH

SMILES	IC50 [1] [nM]	IC50 [2] [nM]	IC50 (H2405 cells) [nM]	IC50 (Miapaca-2 cells) [nM]
CCOc1cc(-c2cc(NC(=O)c3ccnc(C(F)(F)F)c3)ccc2C)cc(-c2ccnc(NC(=O)C3CC3)c2)n1 [Example 12]	1000 to 10000	≤ 100	100 to 500	1000 to 10000
CC(=O)Nc1cc(-c2cc(-c3cc(NC(=O)c4ccnc(C(F)(F)F)c4)ccc3C)cc(N3CCOCC3)n2)ccn1 [Example 15]	1000 to 10000	≤ 100	≤ 100	1000 to 10000
Cc1ccc(NC(=O)c2ccnc(C(F)(F)F)c2)cc1-c1ccnc(-c2ccnc(N)c2)c1 [Example 16, N-(3-(2′-amino-[2,4′-bipyridin]-4-yl)-4-methylphenyl)-2-(trifluoromethyl)isonicotinamide]	1000 to 10000	≤ 100	1000 to 10000	1000 to 10000
CC(=O)Nc1cc(-c2cc(-c3cc(NC(=O)c4ccnc(C(C)(C)C#N)c4)ccc3C)ccn2)ccn1 [Example 19]	500 to 1000	≤ 100	≤ 100	100 to 500
Cc1ccc(NC(=O)c2ccnc(C(C)(C)F)c2)cc1-c1ccnc(-c2ccnc(NC(=O)C3CC3)c2)n1 [Example 186]	500 to 1000	≤ 100	≤ 100	1000 to 10000
Cc1ccc(NC(=O)c2ccnc(C3(C#N)CC3)c2)cc1-c1nccc(-c2ccnc(NC(=O)C3CC3)c2)n1 [Example 187]	100 to 500	≤ 100	100 to 500	1000 to 10000
Cc1ccc(NC(=O)c2ccnc(C(F)F)c2)cc1-c1ccnc(-c2ccnc(NC(=O)C3CC3)c2)n1 [Example 189]	500 to 1000	≤ 100	100 to 500	1000 to 10000
CNC(=O)c1cc(-c2cccc(-c3cc(NC(=O)c4ccnc(C(C)(C)C#N)c4)cnc3C)c2)ccn1 [Example 192]	1000 to 10000	100 to 500	100 to 500	1000 to 10000
Cc1ncc(NC(=O)c2ccnc(C(C)(C)C#N)c2)cc1-c1ccnc(-c2ccnc(NC(=O)C3CC3)c2)n1 [Example 193]	1000 to 10000	≤ 100	≤ 100	1000 to 10000
Cc1ccc(NC(=O)c2cc(CN(C)C)cc(C(F)(F)F)c2)cc1-c1cccc(-c2cc(NC(=O)C3CC3)ncn2)c1 [Example 202]	1000 to 10000	≤ 100	100 to 500	1000 to 10000
CNC(=O)c1cc(-c2cccc(-c3cc(NC(=O)c4ccnc(C(C)(C)C#N)c4)cnc3C)c2)ncn1 [Example 204]	1000 to 10000	100 to 500	100 to 500	1000 to 10000
Cc1cc(-c2cc(NC(=O)C3CC3)ncn2)cc(-c2cc(NC(=O)c3ccnc(C(C)(C)C#N)c3)ccc2C)c1 [Example 212]	1000 to 10000	≤ 100	≤ 100	1000 to 10000
CNC(=O)c1cc(-c2cc(-c3cc(NC(=O)c4ccnc(C(C)(C)F)c4)ccc3C)ccn2)ccn1 [Example 214]	1000 to 10000	100 to 500	100 to 500	1000 to 10000
Cc1ncc(NC(=O)c2ccnc(C(C)(C)C#N)c2)cc1-c1cc(-c2cc(NC(=O)C3CC3)ncn2)cc(C2CC2)c1 [Example 218]	1000 to 10000	100 to 500	100 to 500	1000 to 10000
COCCNc1cc(-c2nccc(-c3cc(NC(=O)c4ccnc(C(C)(C)C#N)c4)ccc3C)n2)ccn1 [Example 221]	1000 to 10000	≤ 100	1000 to 10000	1000 to 10000
Cc1ncc(NC(=O)c2ccnc(C(C)(C)C#N)c2)cc1-c1cccc(-c2ccnc(NC(=O)C3CC3)c2)c1 [Example 222]	500 to 1000	≤ 100	100 to 500	1000 to 10000
Cc1ccc(NC(=O)c2ccnc(C(C)(C)C#N)c2)cc1-c1cncc(-c2cc(NC(=O)C3CC3)ncn2)c1 [Example 224]	500 to 1000	≤ 100	≤ 100	100 to 500
COC(=O)Nc1cc(-c2cccc(-c3cc(NC(=O)c4ccnc(C(C)(C)C#N)c4)cnc3C)c2)ncn1 [Example 225]	1000 to 10000	≤ 100	500 to 1000	1000 to 10000
Cc1ccc(NC(=O)c2ccnc(C3CC3)c2)cc1-c1ccnc(-c2ccnc(NC(=O)C3CC3)c2)n1 [Example 229]	100 to 500	≤ 100	≤ 100	1000 to 10000
Cc1ccc(NC(=O)c2ccnc(C(C)(C)C#N)c2)cc1-c1cnnc(-c2ccnc(NC(=O)C3CC3)c2)c1 [Example 230]	1000 to 10000	≤ 100	≤ 100	500 to 1000

SMILES	IC50 [1] [nM]	IC50 [2] [nM]	IC50 (H2405 cells) [nM]	IC50 (Miapaca-2 cells) [nM]
CNC(=O)c1cc(-c2cc(-c3cc(NC(=O)c4cccc(C(C)(C)C#N)c4)ccc3C)cc(OCCO)n2)ccn1 [Example 231]	1000 to 10000	≤ 100	≤ 100	1000 to 10000
CNC(=O)c1cc(-c2cncc(-c3cc(NC(=O)c4ccnc(C(C)(C)C#N)c4)ccc3C)c2)ncn1 [Example 235]	1000 to 10000	100 to 500	100 to 500	1000 to 10000
Cc1ccc(NC(=O)c2ccnc(C(C)(C)C#N)c2)cc1-c1ccnc(-c2ccnc(NC(=O)C3(C#N)CC3)c2)n1 [Example 241]	1000 to 10000	≤ 100	≤ 100	500 to 1000
Cc1ccc(NC(=O)c2ccnc(C(C)(C)C#N)c2)cc1-c1cc(-c2ccnc(NC(=O)C3CC3)c2)cnn1 [Example 245]	500 to 1000	≤ 100	≤ 100	1000 to 10000
Cc1ncc(NC(=O)c2ccnc(C(C)(C)F)c2)cc1-c1cccc(-c2cc(NC(=O)C3CC3)ncn2)c1 [Example 249]	500 to 1000	≤ 100	100 to 500	1000 to 10000
Cc1ccc(NC(=O)c2cnnc(C3CC3)c2)cc1-c1ccnc(-c2ccnc(NC(=O)C3CC3)c2)n1 [Example 250]	1000 to 10000	≤ 100	100 to 500	1000 to 10000
Cc1ncc(NC(=O)c2ccnc(C(C)(C)C#N)c2)cc1-c1ccnc(-c2ccnc(NC(=O)C3CC3)c2)c1 [Example 251]	1000 to 10000	≤ 100	100 to 500	1000 to 10000
Cc1ncc(NC(=O)c2ccnc(C3CC3)c2)cc1-c1ccnc(-c2ccnc(NC(=O)C3CC3)c2)c1 [Example 253]	1000 to 10000	≤ 100	100 to 500	1000 to 10000
Cc1ncc(NC(=O)c2cnnc(C3CC3)c2)cc1-c1ccnc(-c2ccnc(NC(=O)C3CC3)c2)c1 [Example 254]	1000 to 10000	≤ 100	1000 to 10000	1000 to 10000
Cc1ncc(NC(=O)c2ccnc(C3CC3)c2)cc1-c1cnc(C)c(-c2ccnc(NC(=O)C3CC3)c2)c1 [Example 256]	1000 to 10000	≤ 100	100 to 500	1000 to 10000
CNC(=O)c1cc(-c2cc(-c3cc(NC(=O)c4ccnc(C(C)(C)OC)c4)ccc3C)ccn2)ccn1 [Example 264]	1000 to 10000	100 to 500	100 to 500	1000 to 10000
CNC(=O)c1cc(-c2cc(-c3cc(NC(=O)c4ccnc(C5(C#N)CC5)c4)ccc3C)ccn2)ccn1 [Example 265]	1000 to 10000	≤ 100	≤ 100	1000 to 10000
Cc1ccc(NC(=O)c2ccnc(C(C)(C)C#N)c2)cc1-c1cccc(-c2cc(N)ncn2)c1 [Example 267]	1000 to 10000	≤ 100	500 to 1000	1000 to 10000
CNC(=O)c1cc(-c2ccnc(-c3cc(NC(=O)c4ccnc(C(C)(C)OC)c4)ccc3C)n2)ccn1 [Example 268]	1000 to 10000	100 to 500	100 to 500	
Cc1ncc(NC(=O)c2ccnc(C(C)C)c2)cc1-c1cccc(-c2ccnc(NC(=O)C3CC3)c2)n1 [Example 269]	1000 to 10000	≤ 100	≤ 100	
Cc1ncc(NC(=O)c2ccnc(C3CC3)c2)cc1-c1cccc(-c2ccnc(NC(=O)C3CC3)c2)n1 [Example 270]	1000 to 10000	≤ 100	100 to 500	1000 to 10000
Cc1cc(F)c(NC(=O)c2ccnc(C(F)(F)F)c2)cc1-c1cncc(-c2ccnc(NC(=O)C3CC3)c2)n1 [Example 271]	500 to 1000	≤ 100	100 to 500	1000 to 10000
Cc1cc(C(=O)Nc2cnc(C)c(-c3ccnc(-c4ccnc(NC(=O)C5CC5)c4)n3)c2)ccn1 [Example 273]	1000 to 10000	100 to 500	1000 to 10000	1000 to 10000
Cc1cc(F)c(NC(=O)c2ccnc(C(C)(C)F)c2)cc1-c1cncc(-c2ccnc(NC(=O)C3CC3)c2)n1 [Example 276]	100 to 500	≤ 100	≤ 100	
Cc1ncc(NC(=O)c2ccnc(C3CC3)c2)cc1-c1ccnc(-c2ccnc(NC(=O)C3CC3)c2)n1 [Example 277]	1000 to 10000	≤ 100	100 to 500	
